Experiments:
[1] = target: T1, DDR2 (Homo sapiens, UniProt Q16832); assay: Type I collagen-mediated DDR2 tyrosine phosphorylation in melanoma cells (immunoblot); assay type: cell-based; settings: data not shown
T1 sequence (Q16832 22-855): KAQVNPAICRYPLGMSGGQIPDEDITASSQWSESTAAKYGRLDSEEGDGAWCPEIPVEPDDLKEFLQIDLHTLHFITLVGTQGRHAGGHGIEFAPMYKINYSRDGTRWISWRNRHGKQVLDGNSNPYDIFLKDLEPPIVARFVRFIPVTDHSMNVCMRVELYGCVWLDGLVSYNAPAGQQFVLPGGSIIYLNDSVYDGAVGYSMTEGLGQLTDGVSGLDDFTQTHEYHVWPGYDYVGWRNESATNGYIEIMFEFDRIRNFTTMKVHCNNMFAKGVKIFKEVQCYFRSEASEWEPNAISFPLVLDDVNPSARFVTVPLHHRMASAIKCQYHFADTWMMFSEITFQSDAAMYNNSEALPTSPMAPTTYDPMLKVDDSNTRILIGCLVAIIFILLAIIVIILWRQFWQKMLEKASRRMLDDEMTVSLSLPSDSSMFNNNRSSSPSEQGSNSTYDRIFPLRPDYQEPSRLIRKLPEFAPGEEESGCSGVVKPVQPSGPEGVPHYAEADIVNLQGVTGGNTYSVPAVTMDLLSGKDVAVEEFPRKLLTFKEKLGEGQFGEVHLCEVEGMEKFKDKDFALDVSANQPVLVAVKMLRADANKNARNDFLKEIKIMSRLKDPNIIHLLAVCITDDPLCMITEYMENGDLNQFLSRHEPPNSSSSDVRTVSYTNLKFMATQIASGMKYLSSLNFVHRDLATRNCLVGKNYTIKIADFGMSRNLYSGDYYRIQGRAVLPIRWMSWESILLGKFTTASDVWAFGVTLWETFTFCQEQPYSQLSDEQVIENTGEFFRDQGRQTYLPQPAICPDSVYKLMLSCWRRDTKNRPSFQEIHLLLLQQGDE

[2] = system: 1205Lu melanoma cells; assay: Apoptosis by flow cytometry (AnnexinV-FITC/PI) of cells on MAF-derived ECM; assay type: cell-based; settings: 10 μM Imatinib in presence of 2 μM Vemurafenib, 48 h, 1205Lu on 3D-ECM
Protocol: Cell cycle profiles were determined by flow cytometry analysis of propidium iodide (PI)-stained cells. Melanoma cells cultured onto cell-derived matrices and treated with or without 2 μM vemurafenib for 48 h were washed, fixed in 80% ethanol and incubated at −20° C. for 24 h. Cells were then stained for 20 min at 37° C. in buffer containing 40 μg/ml PI and 20 μg/ml ribonuclease A from bovine pancreas. Cell cycle profiles were collected on a FACS Canto. Cell death was evaluated by flow cytometry following staining with AnnexinV/PI (eBioscience).

[3] = system: 1205Lu melanoma cells; settings: Kaplan-Meier, 1205Lu melanoma-bearing mice
Protocol: Mouse experiments were carried out in accordance with the Institutional Animal Care and the local ethical committee. […] Tumor was measured by caliper and the volume was calculated using the formula: V=tumor width×tumor length 2×0.5. When tumor reached 100 mm^3, mice were randomly grouped into control and test groups. […] Mice in control group were treated with vehicle. […] After animal sacrifice tumors were dissected, fixed in formalin and embedded in paraffin.

Row | Structure (SMILES) | type I collagen-mediated DDR2 tyrosine phosphorylation [1] | apoptosis (AnnexinV/PI cytometry) [2] | Median time to progression [3]
1 | Cc1ccc(NC(=O)c2ccc(CN3CCN(C)CC3)cc2)cc1Nc1nccc(-c2cccnc2)n1 [Imatinib, (4-(4-methylpiperazin-l-yhnethyl)-N-[4-methyl-3-(4-pyridin-3-yl)pyrimidin-2-ylamino)phenyl-benzamide)] | efficiently abrogated | Induction of apoptosis | 
2 | CCCS(=O)(=O)Nc1ccc(F)c(C(=O)c2c[nH]c3ncc(-c4ccc(Cl)cc4)cc23)c1F [Vemurafenib] |  |  | 36 days
